{"source": "patent US7030138B2", "about": "“Benzamidine derivatives” (Sankyo Company, Limited, priority 2001, dated 2006)", "key": {"human factor-Xa": {"biological_target": "T1, human factor-Xa (Homo sapiens, UniProt P00742)", "T1 construct": "purchased Cosmobio Co., Ltd", "T1 sequence (P00742 235-488 limits assumed)": "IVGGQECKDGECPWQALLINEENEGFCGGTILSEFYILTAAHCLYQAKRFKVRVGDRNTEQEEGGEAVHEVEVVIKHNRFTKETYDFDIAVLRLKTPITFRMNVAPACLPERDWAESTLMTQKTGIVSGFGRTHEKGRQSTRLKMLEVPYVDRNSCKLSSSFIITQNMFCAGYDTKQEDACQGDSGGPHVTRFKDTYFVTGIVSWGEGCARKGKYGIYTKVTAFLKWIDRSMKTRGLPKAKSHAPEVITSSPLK", "T1 sequence (P00742 41-179 partner limits assumed)": "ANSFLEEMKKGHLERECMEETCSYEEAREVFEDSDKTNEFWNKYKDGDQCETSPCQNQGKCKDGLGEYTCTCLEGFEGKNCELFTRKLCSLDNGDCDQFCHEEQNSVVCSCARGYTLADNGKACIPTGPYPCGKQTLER", "assay": "Determination of anti-factor Xa activity (S-2222 coloring substrate, absorbance at 405 nm)", "format": "biochemical", "conditions": "human factor-Xa 0.25 unit/ml, S-2222 0.4 mM, Tris buffer pH 8.4, room temperature, 5 minutes; read-out: Inhibitory Action against Factor Xa Activity (IC50 (nM))", "protocol": "Determination of Anti-factor Xa Activity\nAnti-factor Xa activity was determined according to methods described by Hara et al. [Thrombo. Haemost., 71, 314 (1994)], which were slightly modified. S-2222, a coloring substrate (0.4 mM, Daiichi Pure Chemicals Co., Ltd.) and the test compounds were mixed in Tris hydrochloride buffered solution (50 mM, pH: 8.4) containing NaCl (0.9%). To this solution, human factor-Xa (0.25 unit/ml, Cosmobio Co., Ltd.) was added and the reaction was started. In the control group, distilled water was added to the Tris-buffered solution instead of the test compound. The reaction mixture (in total: 0.1 ml) was incubated at room temperature for 5 minutes. Optical absorbance of the reaction mixture was continuously determined at 405 nm with a 96-well microplate reader (Model 550, Biorad) and increase in the absorbance for 5 minutes was calculated as an indicator of factor Xa activity. To assess anti-factor Xa activities of the test compounds, concentrations of the test compounds to inhibit the factor Xa activity by 50% (IC50) were calculated."}, "bovine trypsin": {"biological_target": "T2, bovine trypsin (Bos taurus, UniProt P00760)", "T2 construct": "purchased Sigma", "T2 sequence (P00760 24-246)": "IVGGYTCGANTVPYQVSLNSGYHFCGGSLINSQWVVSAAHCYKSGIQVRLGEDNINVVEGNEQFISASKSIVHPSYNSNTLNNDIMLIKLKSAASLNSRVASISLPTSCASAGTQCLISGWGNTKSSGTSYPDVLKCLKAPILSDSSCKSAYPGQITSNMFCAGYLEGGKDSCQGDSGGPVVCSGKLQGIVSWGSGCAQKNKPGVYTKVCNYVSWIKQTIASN", "assay": "Determination of anti-trypsin activity (S-2222 coloring substrate, absorbance at 405 nm)", "format": "biochemical", "conditions": "bovine trypsin 0.25 μg-protein/ml, S-2222 0.4 mM, Tris buffer pH 8.4, room temperature, 5 minutes; read-out: Inhibitory Action against Trypsin Activity (IC50 (nM))", "protocol": "Determination of Anti-trypsin Activity\nAnti-trypsin activity was determined according to methods described by Taniuchi et al. [Thromb. Haemost., 79, 543 (1998)], which were partially modified. S-2222, a coloring substrate (5 μl, final concentration: 0.4 mM, Daiichi Pure Chemicals Co., Ltd.) and the test compound (5 μl) were mixed with Tris hydrochloride buffered solution (50 mM, 85 μl, pH: 8.4) containing NaCl (0.9%). To this solution, bovine trypsin (5 μl, final concentration: 0.25 μg-protein/ml, Sigma) was added and the reaction was started. In the control group, distilled water was added to the Tris-buffered solution instead of the test compound. The reaction mixture (in total: 0.1 ml) was incubated at room temperature. Optical absorbance was continuously determined at 405 nm with a 96-well microplate reader (Model 550, Biorad) and increase in the absorbance for 5 minutes was calculated as an indicator of trypsin activity. To assess anti-trypsin activities of the test compounds, concentrations of the test compounds to inhibit the trypsin activity by 50% (IC50) were calculated."}}, "note": "Structures can show the parent of a compound that is named as a salt."}
{"smiles": "CCC(=N)N1CCC(Oc2ccc(N(C/C=C/c3cccc(C(=N)N)c3)S(=O)(=O)CC(=O)O)cc2Cl)CC1", "note": "[Example 50, N-[3-(3-Amidinophenyl)-2-(E)-propenyl]-N-[3-chloro-4-[1-(1-iminopropyl)piperidin-4-yloxy]phenyl]sulfamoylacetic acid dihydrochloride]", "values": [{"measurement": "IC50", "setting": "human factor-Xa", "result": 6.3, "unit": "nM"}, {"measurement": "IC50", "setting": "bovine trypsin", "result": 1200, "unit": "nM"}]}
{"smiles": "CCOC(=O)CS(=O)(=O)N(C/C=C/c1cccc(C(=N)N)c1)c1ccc(OC2CCN(C3=NCCC3)CC2)c(Cl)c1", "note": "[Example 53, Ethyl N-[3-(3-amidinophenyl)-2-(E)-propenyl]-N-[3-chloro-4-[1-(4,5-dihydro-3H-pyrrol-2-yl)piperidin-4-yloxy]phenyl]sulfamoylacetate dihydrochloride]", "values": [{"measurement": "IC50", "setting": "human factor-Xa", "result": 6.8, "unit": "nM"}, {"measurement": "IC50", "setting": "bovine trypsin", "result": 2100, "unit": "nM"}]}
{"smiles": "N=C(N)c1cccc(/C=C/CN(c2ccc(OC3CCN(C4=NCCC4)CC3)c(Cl)c2)S(=O)(=O)CC(=O)O)c1", "note": "[Example 54, N-[3-(3-Amidinophenyl)-2-(E)-propenyl]-N-[3-chloro-4-[1-(4,5-dihydro-3H-pyrrol-2-yl)piperidin-4-yloxy]phenyl]sulfamoylacetic acid dihydrochloride]", "values": [{"measurement": "IC50", "setting": "human factor-Xa", "result": 7, "unit": "nM"}, {"measurement": "IC50", "setting": "bovine trypsin", "result": 2200, "unit": "nM"}]}
{"smiles": "N=C(N)c1cccc(/C=C/CN(c2ccc(OC3CCN(C4=NCCC4)CC3)cc2)S(=O)(=O)CC(=O)O)c1", "note": "[Example 60, N-[3-(3-Amidinophenyl)-2-(E)-propenyl]-N-[4-[1-(4,5-dihydro-3H-pyrrol-2-yl)piperidin-4-yloxy]phenyl]sulfamoylacetic acid dihydrochloride]", "values": [{"measurement": "IC50", "setting": "human factor-Xa", "result": 14, "unit": "nM"}, {"measurement": "IC50", "setting": "bovine trypsin", "result": 3100, "unit": "nM"}]}
{"smiles": "CCOC(=O)CS(=O)(=O)N(C/C=C/c1cccc(C(=N)N)c1)c1ccc(OC2CCN(C3=NCCC3)CC2)c(C)c1", "note": "[Example 65, Ethyl N-[3-(3-amidinophenyl)-2-(E)-propenyl]-N-[4-[1-(4,5-dihydro-3H-pyrrol-2-yl)piperidin-4-yloxy]-3-methylphenyl]sulfamoylacetate dihydrochloride]", "values": [{"measurement": "IC50", "setting": "human factor-Xa", "result": 12, "unit": "nM"}, {"measurement": "IC50", "setting": "bovine trypsin", "result": 2300, "unit": "nM"}]}
{"smiles": "Cc1cc(N(C/C=C/c2cccc(C(=N)N)c2)S(=O)(=O)CC(=O)O)ccc1OC1CCN(C2=NCCC2)CC1", "note": "[Example 66, N-[3-(3-Amidinophenyl)-2-(E)-propenyl]-N-[4-[1-(4,5-dihydro-3H-pyrrol-2-yl)piperidin-4-yloxy-]-3-methylphenyl]sulfamoylacetic acid dihydrochloride]", "values": [{"measurement": "IC50", "setting": "human factor-Xa", "result": 8.3, "unit": "nM"}, {"measurement": "IC50", "setting": "bovine trypsin", "result": 5600, "unit": "nM"}]}
{"smiles": "N=C(N)c1cccc(/C=C/CN(c2ccc(OC3CCN(C4=NCCC4)CC3)c(C(N)=O)c2)S(=O)(=O)CC(=O)O)c1", "note": "[Example 72, N-[3-(3-Amidinophenyl)-2-(E)-propenyl]-N-[3-carbamoyl-4-[1-(4,5-dihydro-3H-pyrrol-2-yl)piperidin-4-yloxy]phenyl]sulfamoylacetic acid dihydrochloride]", "values": [{"measurement": "IC50", "setting": "human factor-Xa", "result": 9.8, "unit": "nM"}, {"measurement": "IC50", "setting": "bovine trypsin", "result": 4400, "unit": "nM"}]}
{"smiles": "CCOC(=O)CS(=O)(=O)N(C/C=C/c1cccc(C(=N)N)c1)c1ccc(OC2CCN(C3=NCCC3)CC2)c(C(F)(F)F)c1", "note": "[Example 77, Ethyl N-[3-(3-amidinophenyl)-2-(E)-propenyl]-N-[4-[1-(4,5-dihydro-3H-pyrrol-2-yl)piperidin-4-yloxy]-3-trifluoromethylphenyl]sulfamoylacetate dihydrochloride]", "values": [{"measurement": "IC50", "setting": "human factor-Xa", "result": 12, "unit": "nM"}, {"measurement": "IC50", "setting": "bovine trypsin", "result": 3700, "unit": "nM"}]}
{"smiles": "N=C(N)c1cccc(/C=C/CN(c2ccc(OC3CCN(C4=NCCC4)CC3)c(C(F)(F)F)c2)S(=O)(=O)CC(=O)O)c1", "note": "[Example 78, N-[3-(3-Amidinophenyl)-2-(E)-propenyl]-N-[4-[1-(4,5-dihydro-3H-pyrrol-2-yl)piperidin-4-yloxy]-3-trifluoromethylphenyl]sulfamoylacetic acid dihydrochloride]", "values": [{"measurement": "IC50", "setting": "human factor-Xa", "result": 11, "unit": "nM"}, {"measurement": "IC50", "setting": "bovine trypsin", "result": 5300, "unit": "nM"}]}
{"smiles": "CC/N=C/N1CCC(Oc2ccc(N(C/C=C/c3cccc(C(=N)N)c3)S(=O)(=O)CC(=O)O)cc2Cl)CC1", "note": "[Example 87, N-[3-(3-Amidinophenyl)-2-(E)-propenyl]-N-[3-chloro-4-[1-(N-ethylformimidoyl)piperidin-4-yloxy]phenyl]sulfamoylacetic acid dihydrochloride]", "values": [{"measurement": "IC50", "setting": "human factor-Xa", "result": 13, "unit": "nM"}, {"measurement": "IC50", "setting": "bovine trypsin", "result": 3500, "unit": "nM"}]}
{"smiles": "N=C(N)c1cccc(/C=C/CN(c2ccc(OC3CCN(C4=NCCO4)CC3)c(Cl)c2)S(=O)(=O)CC(=O)O)c1", "note": "[Example 89, N-[3-(3-Amidinophenyl)-2-(E)-propenyl]-N-[3-chloro-4-[1-(4,5-dihydrooxazol-2-yl)piperidin-4-yloxy]phenyl]sulfamoylacetic acid dihydrochloride]", "values": [{"measurement": "IC50", "setting": "human factor-Xa", "result": 11, "unit": "nM"}, {"measurement": "IC50", "setting": "bovine trypsin", "result": 2000, "unit": "nM"}]}
